These are literature values, as cited in patent US10278869B2, “Apparatus for aspirating, irrigating and cleansing wounds” (SMITH & NEPHEW PLC, priority 2002, dated 2019).

The conditions of the data set: EP standard, CRS.

For gentamycin sulphate, the activity is reported as 616 IU mg^−1.
